One block for each compound: values may come before it. Active and inactive are the calls of the source. The rule behind the calls is not given here.
Experiments:
[1] = molecular target: T1, Serine/threonine-protein kinase LATS (Homo sapiens) (UniProt Q9NRM7+O95835); test: Inhibition of LATS in human limbal epithelial cells assessed as induction of limbal stem cell expansion by measuring expansion factor ratio at 10 uM measured after 2 weeks by p63alpha expression detection based immunohistochemistry relative to control; parameters: scale not given: the % may be the effect or the level left
T1 sequence (Q9NRM7 whole entry, looked up, one chain of several): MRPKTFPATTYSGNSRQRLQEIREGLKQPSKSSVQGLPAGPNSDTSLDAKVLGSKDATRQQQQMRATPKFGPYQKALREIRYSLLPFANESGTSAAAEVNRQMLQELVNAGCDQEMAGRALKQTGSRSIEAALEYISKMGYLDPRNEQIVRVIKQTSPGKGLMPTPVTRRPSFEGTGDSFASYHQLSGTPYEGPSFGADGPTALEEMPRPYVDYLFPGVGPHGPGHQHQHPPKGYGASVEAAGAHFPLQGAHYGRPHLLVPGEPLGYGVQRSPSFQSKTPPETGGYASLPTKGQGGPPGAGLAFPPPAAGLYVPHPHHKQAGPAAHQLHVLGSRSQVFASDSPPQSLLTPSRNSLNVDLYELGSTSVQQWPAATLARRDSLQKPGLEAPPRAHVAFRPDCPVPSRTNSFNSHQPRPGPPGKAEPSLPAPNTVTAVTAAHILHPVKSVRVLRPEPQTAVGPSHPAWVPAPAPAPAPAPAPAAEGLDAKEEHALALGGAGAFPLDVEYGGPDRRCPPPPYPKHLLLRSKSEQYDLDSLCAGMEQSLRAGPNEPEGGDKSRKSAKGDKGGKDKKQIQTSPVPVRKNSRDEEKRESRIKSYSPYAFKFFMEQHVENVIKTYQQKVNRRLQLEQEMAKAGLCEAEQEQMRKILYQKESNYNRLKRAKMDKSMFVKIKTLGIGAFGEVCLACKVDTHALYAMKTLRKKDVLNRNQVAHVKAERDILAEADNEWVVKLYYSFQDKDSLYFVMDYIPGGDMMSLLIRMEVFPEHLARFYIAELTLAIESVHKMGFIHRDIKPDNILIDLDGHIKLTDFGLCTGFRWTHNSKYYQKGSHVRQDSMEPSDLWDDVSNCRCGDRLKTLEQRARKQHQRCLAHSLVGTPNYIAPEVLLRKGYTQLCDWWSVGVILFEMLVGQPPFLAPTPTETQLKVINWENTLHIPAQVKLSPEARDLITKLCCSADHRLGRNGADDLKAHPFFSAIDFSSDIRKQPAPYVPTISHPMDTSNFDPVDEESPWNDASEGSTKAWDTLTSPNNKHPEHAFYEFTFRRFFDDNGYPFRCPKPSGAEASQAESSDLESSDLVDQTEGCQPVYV

[2] = molecular target: T1, Serine/threonine-protein kinase LATS (Homo sapiens); test: Inhibition of LATS in human corneal endothelium cells assessed as induction of cell expansion by measuring cell density at 10 uM by Sytox orange dye based epifluorescence microscopy
[3] = molecular target: T2, Serine/threonine-protein kinase LATS1 (Homo sapiens, UniProt O95835); test: Inhibition of human LATS1 kinase domain (589 to 1130 amino acids) incubated for 30 mins by HTRF assay
T2 sequence (O95835 whole entry): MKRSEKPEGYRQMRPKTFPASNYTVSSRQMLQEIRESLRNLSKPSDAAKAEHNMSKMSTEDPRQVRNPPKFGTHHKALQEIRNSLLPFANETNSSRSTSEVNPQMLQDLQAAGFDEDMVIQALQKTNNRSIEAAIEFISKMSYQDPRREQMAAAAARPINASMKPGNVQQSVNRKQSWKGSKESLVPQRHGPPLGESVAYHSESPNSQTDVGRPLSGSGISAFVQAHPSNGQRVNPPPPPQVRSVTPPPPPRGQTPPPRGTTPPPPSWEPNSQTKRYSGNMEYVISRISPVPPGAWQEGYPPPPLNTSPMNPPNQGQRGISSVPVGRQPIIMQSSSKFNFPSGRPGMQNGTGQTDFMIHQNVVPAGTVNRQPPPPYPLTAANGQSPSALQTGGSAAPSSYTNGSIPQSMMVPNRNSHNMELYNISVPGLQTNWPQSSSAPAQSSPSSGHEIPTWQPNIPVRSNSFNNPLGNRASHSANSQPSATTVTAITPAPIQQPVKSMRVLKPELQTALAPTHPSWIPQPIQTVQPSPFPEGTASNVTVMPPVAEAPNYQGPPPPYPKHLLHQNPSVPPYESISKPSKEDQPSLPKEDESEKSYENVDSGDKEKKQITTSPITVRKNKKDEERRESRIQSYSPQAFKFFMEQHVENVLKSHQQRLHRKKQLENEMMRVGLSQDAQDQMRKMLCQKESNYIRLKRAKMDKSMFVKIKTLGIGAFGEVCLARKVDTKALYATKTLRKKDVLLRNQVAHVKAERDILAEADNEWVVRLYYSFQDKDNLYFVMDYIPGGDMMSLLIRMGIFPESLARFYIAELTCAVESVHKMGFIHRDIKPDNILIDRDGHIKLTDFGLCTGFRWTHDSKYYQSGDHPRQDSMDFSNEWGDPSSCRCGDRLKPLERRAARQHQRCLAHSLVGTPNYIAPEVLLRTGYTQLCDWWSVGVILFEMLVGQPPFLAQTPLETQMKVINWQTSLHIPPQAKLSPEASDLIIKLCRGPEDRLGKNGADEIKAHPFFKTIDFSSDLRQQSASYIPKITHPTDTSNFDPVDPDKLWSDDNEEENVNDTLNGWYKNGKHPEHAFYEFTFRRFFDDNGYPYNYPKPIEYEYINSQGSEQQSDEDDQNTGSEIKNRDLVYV

[4] = Total drug level in cell pellets of human limbal stem cells by LC-MS analysis; assay type: ADME
[5] = Drug level in post wash cell pellets of human limbal stem cells by LC-MS analysis; assay type: ADME
[6] = molecular target: T1, Serine/threonine-protein kinase LATS (Homo sapiens); test: Inhibition of LATS in human limbal epithelial cells assessed as increase in YAP level at 10 uM incubated for 24 hrs by immunostaining based assay; conditions: Epithelial cell
[7] = molecular target: T1, Serine/threonine-protein kinase LATS (Homo sapiens); test: Inhibition of LATS in human limbal epithelial cells assessed as reduction in YAP phosphorylation level at 10 uM incubated for 1 hr by Western blot analysis; assay type: cell-based; conditions: Epithelial cell
[8] = molecular target: T1, Serine/threonine-protein kinase LATS (Homo sapiens); test: Inhibition of LATS in human limbal epithelial cells assessed as induction of limbal stem cell expansion by measuring p63alpha expression at 10 uM measured after 2 weeks by immunohistochemistry; assay type: cell-based
[9] = molecular target: T1, Serine/threonine-protein kinase LATS (Homo sapiens); test: Inhibition of LATS in human limbal epithelial cells assessed as induction of limbal stem cell expansion marker expression by measuring deltaN-p63-alphabetagamma protein expression at 10 uM incubated for 8 to 10 days by immunohistochemistry; assay type: cell-based
[10] = molecular target: T1, Serine/threonine-protein kinase LATS (Homo sapiens); test: Inhibition of LATS in human limbal epithelial cells assessed as induction of limbal stem cell expansion marker expression by measuring ABCG2 protein expression at 10 uM incubated for 8 to 10 days by immunohistochemistry; assay type: cell-based
[11] = molecular target: T1, Serine/threonine-protein kinase LATS (Homo sapiens); test: Inhibition of LATS in human limbal epithelial cells assessed as induction of limbal stem cell expansion marker expression by measuring C/EBPdelta protein expression at 10 uM incubated for 8 to 10 days by immunohistochemistry; assay type: cell-based
[12] = molecular target: T1, Serine/threonine-protein kinase LATS (Homo sapiens); test: Inhibition of LATS in human limbal epithelial cells assessed as induction of cell differentiation into corneal epithelial cells by measuring keratin-12 expression at 10 uM incubated for 8 to 10 days followed by medium change to DMEM medium without serum and compound for further incubation for 4 to 8 days by confocal microscopy; assay type: cell-based
[13] = molecular target: T1, Serine/threonine-protein kinase LATS (Homo sapiens); test: Inhibition of LATS in human corneal endothelium cells assessed as increase in YAP level at 10 uM incubated for 24 hrs by immunohistochemistry
[14] = molecular target: T1, Serine/threonine-protein kinase LATS (Homo sapiens); test: Inhibition of LATS in human corneal endothelium cells assessed as reduction in YAP phosphorylation at 10 uM incubated for 1 hr by Western blot analysis
[15] = molecular target: T1, Serine/threonine-protein kinase LATS (Homo sapiens); test: Inhibition of LATS in human corneal endothelium cells assessed as induction of cell proliferation measured every 3 hrs for 10 days
[16] = molecular target: T1, Serine/threonine-protein kinase LATS (Homo sapiens); test: Inhibition of LATS in human corneal endothelium cells assessed as induction of tight junctions formation by measuring ZO1 expression at 10 uM incubated for 10 days by immunofluorescence staining based confocal microscopy
[17] = molecular target: T1, Serine/threonine-protein kinase LATS (Homo sapiens); test: Inhibition of LATS in human corneal endothelium cells assessed as induction of normal corneal endothelial cell morphology at 10 uM incubated for 10 days by immunofluorescence staining based confocal microscopy
[18] = molecular target: T1, Serine/threonine-protein kinase LATS (Homo sapiens); test: Inhibition of LATS in human corneal endothelium cells assessed as induction of cell expansion by measuring Collagen 8a2 gene expression at 10 uM incubated for 10 days by RT-PCR analysis
[19] = molecular target: T1, Serine/threonine-protein kinase LATS (Homo sapiens); test: Inhibition of LATS in human corneal endothelium cells assessed as induction of cell expansion by measuring AQP1 gene expression at 10 uM incubated for 10 days by RT-PCR analysis
[20] = molecular target: T1, Serine/threonine-protein kinase LATS (Homo sapiens); test: Inhibition of LATS in human corneal endothelium cells assessed as induction of cell expansion by measuring SLC4A11 gene expression at 10 uM incubated for 10 days by RT-PCR analysis
[21] = molecular target: T1, Serine/threonine-protein kinase LATS (Homo sapiens); test: Inhibition of LATS in human corneal endothelium cells assessed as induction of cell expansion by measuring Na/K ATPase protein expression at 10 uM incubated for 10 days by immunohistochemistry
[22] = molecular target: T1, Serine/threonine-protein kinase LATS (Homo sapiens); test: Inhibition of LATS in human corneal endothelium cells assessed as induction of cell expansion by measuring Collagen 8a2 protein expression at 10 uM incubated for 10 days by immunohistochemistry
Mus musculus [23] = test: Inhibition of LATS in C57BL/6J mouse assessed as change in CTGF mRNA expression level at 30 mg/kg, po administered as single dose measured after 2 hrs by qRT-PCR analysis relative to control; assay type: functional
Mus musculus [24] = test: Inhibition of LATS in C57BL/6J mouse assessed as change in Cyr61 mRNA expression level at 30 mg/kg, po administered as single dose measured after 2 hrs by qRT-PCR analysis relative to control; assay type: functional
Mus musculus [25] = test: Inhibition of LATS in C57BL/6J mouse assessed as change in Ki67 protein expression level at 30 mg/kg, po administered as single dose measured after 24 hrs by immunohistochemistry analysis relative to control; assay type: functional
Mus musculus [26] = test: Inhibition of LATS in C57BL/6J mouse assessed as change in CTGF mRNA expression level at 10 mg/kg, po administered as single dose measured after 2 hrs by qRT-PCR analysis relative to control; assay type: functional
Mus musculus [27] = test: Inhibition of LATS in C57BL/6J mouse assessed as change in Cyr61 mRNA expression level at 10 mg/kg, po administered as single dose measured after 2 hrs by qRT-PCR analysis relative to control; assay type: functional
Mus musculus [28] = test: Inhibition of LATS in C57BL/6J mouse assessed as change in Ki67 protein expression level at 10 mg/kg, po administered as single dose measured after 24 hrs by immunohistochemistry analysis relative to control; assay type: functional

SMILES: CC1CCCC1Nc1nc(-c2ccncc2)nc2cnccc12 (stereo not given)
- Activity [1]: 57 to 97%
- Activity [2]: 1630 /mm2

- IC50 [3]: 7 nM
SMILES: c1cc(-c2cc(NC3CCCC3)c3ccncc3n2)ccn1

- Activity [1]: 57 to 97%
SMILES: FC(F)(F)C1(Nc2nc(-c3ccncc3)cc3cnccc23)CC1
- Activity [2]: 2780 /mm2

- Activity [1]: 57 to 97%
SMILES: CC(C)Nc1nc(-c2ccncc2)nc2cnccc12
- Activity [2]: 3380 /mm2

- Drug uptake [4]: 415 pg
- Drug uptake [5]: 13.5 to 46.5 nM
SMILES: CC(C)N(C)c1nc(-c2ccncc2)nc2cnccc12
- Activity [2]: 3910 /mm2

- Activity [1]: 57 to 97%
SMILES: CCCNc1nc(-c2c[nH]nc2C(F)(F)F)nc2cnccc12
- Activity [2]: 1890 /mm2

- Activity [1]: 57 to 97%
SMILES: CCCNc1nc(-c2ccncc2)nc2cnccc12
- Activity [2]: 3270 /mm2

- inhibition [6]: Active
- inhibition [7]: Active
- inhibition [8]: Active
- Activity [1]: 57 to 97%
- inhibition [9]: Active
- inhibition [10]: Active
- inhibition [11]: Active
- inhibition [12]: Active
- inhibition [13]: Active
- inhibition [14]: Active
- inhibition [15]: Active
- inhibition [16]: Active
- inhibition [17]: Active
- inhibition [18]: Active
- inhibition [19]: Active
- inhibition [20]: Active
- inhibition [21]: Active
- inhibition [22]: Active
SMILES: CC(C)(O)CC(C)(C)Nc1nc(-c2ccncc2)nc2cnccc12
- Activity [2]: 3870 /mm2

SMILES: c1cc(-c2nc(NCCCc3nnn[nH]3)c3ccncc3n2)ccn1
- fold change (FC) (Mus musculus [23]): 2.1
- fold change (FC) (Mus musculus [24]): 3.5
- fold change (FC) (Mus musculus [25]): 3.3

- IC50 [3]: 20 nM
SMILES: CC1(C)CC(O)CCN1c1cc(-c2ccncc2Cl)nc2cnccc12 (stereo not given)

- Activity [1]: 57 to 97%
- inhibition [12]: Active
- Drug uptake [4]: 83 pg
- Drug uptake [5]: 0.315 to 11 nM
SMILES: CC(C)(C)Nc1cc(-c2ccncc2)nc2cnccc12
- fold change (FC) (Mus musculus [26]): 2.5
- fold change (FC) (Mus musculus [27]): 3.9
- fold change (FC) (Mus musculus [28]): 3.1
- Activity [2]: 4310 /mm2

Source: ChEMBL document CHEMBL4420070, “6-6 Fused Bicyclic Heteroaryl Compounds and their Use as LATS Inhibitors” (2018)
